Numbers after ± are expanded uncertainties.
Settings: for surface tension liquid-gas: Pendant drop shape; for mass density / viscosity: 101.33 kPa, Liquid; for mass density: Vibrating tube method; for viscosity: Falling or rolling sphere viscometry

| SMILES | surface tension liquid-gas (298.15 K) [mN/m] | mass density (298.15 K) [kg/m3] | surface tension liquid-gas (313.15 K) [mN/m] | viscosity (313.15 K) [mPa·s] | mass density (313.15 K) [kg/m3] | viscosity (298.15 K) [mPa·s] |
| --- | --- | --- | --- | --- | --- | --- |
| CCCCn1cc[n+](C)c1.COS(=O)(=O)[O-] [1-butyl-3-methylimidazolium methyl sulfate] | 43.3 ± 1.2 | 1212.95 ± 8 | 42.09 ± 1.1 | 104.2 ± 7.7 | 1199.75 ± 7.8 | – |
| CCCCCCn1cc[n+](C)c1.CCOS(=O)(=O)[O-] [1-hexyl-3-methylimidazolium ethyl sulfate] | 31.77 ± 0.45 | 1150.6 ± 1.2 | 29.63 ± 0.43 | 236 ± 19 | 1140.6 ± 1.1 | 589 ± 57 |
| CCCCCCn1cc[n+](C)c1.COS(=O)(=O)[O-] [1-hexyl-3-methylimidazolium methyl sulfate] | 33.59 ± 0.48 | 1168.83 ± 1.2 | 33.54 ± 0.48 | 164.3 ± 12 | 1158.87 ± 1.2 | 383 ± 34 |
| CCCCCCCC[n+]1ccn(C)c1.COS(=O)(=O)[O-] [1-methyl-3-octylimidazolium methyl sulfate] | 30.41 ± 0.44 | 1114.47 ± 1.1 | 30.03 ± 0.43 | 180.6 ± 15 | 1104.64 ± 1.1 | – |
| COS(=O)(=O)[O-].Cn1cc[n+](C)c1 [1,3-dimethylimidazolium methylsulfate] | 59.42 ± 0.8 | 1328.38 ± 1.6 | 58.99 ± 0.8 | 40.8 ± 2.5 | 1317.85 ± 1.6 | 75.5 ± 4.7 |
| CCCCn1cc[n+](C)c1.CCOS(=O)(=O)[O-] [1-butyl-3-methyl-1H-imidazolium ethyl sulfate] | 36.38 ± 0.51 | 1198.93 ± 1.3 | 33.91 ± 0.48 | 164 ± 12 | 1188.69 ± 1.2 | 379.1 ± 33 |
| CCOS(=O)(=O)[O-].CCn1cc[n+](C)c1 [1-ethyl-3-methylimidazolium ethyl sulfate] | – | 1236.26 ± 8.3 | 46.78 ± 1.2 | 48.5 ± 3.2 | 1226.79 ± 8.2 | 91.8 ± 6.2 |
| CCCCCCCC[n+]1ccn(C)c1.CCOS(=O)(=O)[O-] [1-methyl-3-octylimidazolium ethyl sulfate] | 28.67 ± 0.41 | 1115.93 ± 1.1 | 27.94 ± 0.41 | 275.2 ± 25 | 1106.2 ± 1.1 | – |
